Laboratory results from PubChem BioAssay (NCI).
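Protocol summary: plate cells (96-well), add compound at 5 concentrations, incubate 48 h, interpolate endpoints linearly. TGI marks complete inhibition of growth.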

How the values were obtained:
Experiment in all cases: NCI tumour cell line growth inhibition, 48 h
M14 melanoma = tested on: M14 melanoma
NCI-H460 lung = tested on: NCI-H460 lung
OVCAR-8 ovarian = tested on: OVCAR-8 ovarian
BT-549 breast = tested on: BT-549 breast
HCT-15 colon = tested on: HCT-15 colon
SNB-75 CNS = tested on: SNB-75 CNS
SK-OV-3 ovarian = tested on: SK-OV-3 ovarian
MOLT-4 leukemia = tested on: MOLT-4 leukemia
NCI-H226 lung = tested on: NCI-H226 lung
COLO 205 colon = tested on: COLO 205 colon
OVCAR-4 ovarian = tested on: OVCAR-4 ovarian
OVCAR-5 ovarian = tested on: OVCAR-5 ovarian
RXF 393 renal = tested on: RXF 393 renal
SW-620 colon = tested on: SW-620 colon
HOP-92 NSCLC = tested on: HOP-92 NSCLC
OVCAR-3 ovarian = tested on: OVCAR-3 ovarian
ACHN renal = tested on: ACHN renal
UACC-62 melanoma = tested on: UACC-62 melanoma
MDA-N = tested on: MDA-N

Structure (SMILES) | TGI (M14 melanoma) | TGI (NCI-H460 lung) | TGI (OVCAR-8 ovarian) | TGI (BT-549 breast) | TGI (HCT-15 colon) | TGI (SNB-75 CNS) | TGI (SK-OV-3 ovarian) | TGI (MOLT-4 leukemia) | TGI (NCI-H226 lung) | TGI (COLO 205 colon) | TGI (OVCAR-4 ovarian) | TGI (OVCAR-5 ovarian) | TGI (RXF 393 renal) | TGI (SW-620 colon) | TGI (HOP-92 NSCLC) | TGI (OVCAR-3 ovarian) | TGI (ACHN renal) | TGI (UACC-62 melanoma) | TGI (MDA-N)
COc1ccc2c(=O)cc(-c3ccc(OC)c(OC)c3OC)oc2c1 | > 100 µM | > 100 µM | > 100 µM | > 100 µM | > 100 µM | > 92.6 µM | > 100 µM | > 100 µM | > 100 µM | > 100 µM | > 100 µM | > 100 µM | > 100 µM | > 100 µM | > 100 µM | > 87.6 µM | > 100 µM | > 100 µM | > 100 µM
CC(=O)NC(Cc1ccccc1)NC(=O)O (stereo not given) | > 100 µM | > 100 µM | > 100 µM | > 100 µM | > 100 µM | > 100 µM | > 100 µM | > 100 µM | > 100 µM | > 100 µM | > 100 µM | > 100 µM | > 100 µM | > 100 µM | > 100 µM | > 100 µM | > 100 µM | > 100 µM | > 100 µM
O=C(O)C1(Cc2ccccc2)Cc2cc3c(cc2C1)CCC3 | > 100 µM | > 100 µM | > 100 µM | > 100 µM | > 100 µM | > 100 µM | > 100 µM | > 100 µM | > 100 µM | > 100 µM | > 100 µM | > 100 µM | > 100 µM | > 100 µM | 94 µM | > 100 µM | > 100 µM | > 100 µM | > 100 µM
CCC/C(Cl)=N/OC(=O)Nc1cc(C(F)(F)F)ccc1OC | 21.4 µM | 36.5 µM | 29.8 µM | 28.8 µM | 16.6 µM | 28.5 µM | 21.8 µM | 6.01 µM | 30.8 µM | 3.45 µM | 9.75 µM | 32.1 µM | 18.3 µM | 11.4 µM | 6.56 µM | 30.3 µM | 26.1 µM | 28.8 µM | 25 µM
COC(=O)c1ccccc1CC1Cc2cc3c(cc2C1=O)CCC3 (stereo not given) | 44.5 µM | > 71.4 µM | > 80.8 µM | 31.8 µM | > 67.3 µM | 55.7 µM | > 71.8 µM | 33.9 µM | 63.7 µM | 28.4 µM | > 93.3 µM | > 90.8 µM | 17.1 µM | > 100 µM | 42.4 µM | > 76.5 µM | > 100 µM | 69.6 µM | 10.7 µM
